From patent US12655116B2, “Substituted isophthalic acid diamides” (Bayer Aktiengesellschaft, priority 2020, dated 2026)

Test system: harmful plants
Test: Comparative experiments: herbicidal pre-emergence action versus compounds known from D1 (WO 2012/028579 A1)
Format: in vivo
Parameters: key to Herbicidal action against ALOMY / Herbicidal action against AVEFA / Herbicidal action against SETVI / Herbicidal action against AMARE / Herbicidal action against STEME / Herbicidal action against VIOTR / Herbicidal action against HORMU / Herbicidal action against MATIN / Herbicidal action against ABUTH: % herbicidal activity: 0 = like control, 100 = plants died
Text: Seeds of monocotyledonous and dicotyledonous weed plants and crop plants are laid out in sandy loam soil in wood-fiber pots and covered with soil. The compounds of the invention, formulated in the form of wettable powders (WP) or as emulsion concentrates (EC), are then applied to the surface of the covering soil in the form of an aqueous suspension or emulsion at a water application rate equivalent to 600 to 800 l/ha, with addition of 0.2% wetting agent. After the treatment, the pots are placed in a greenhouse and kept under good growth conditions for the trial plants. The damage to the test plants is scored visually after a test period of 3 weeks by comparison with untreated controls (herbicidal activity in percent (%): 100% activity=the plants have died, 0% activity=like control plants). […] The tables below illustrate, in an illustrative manner, the post-emergence herbicidal action of the compounds of the invention, the herbicidal activity being stated in percent. In the experiments that follow, herbicidal action of numerous inventive compounds and the structurally closest compounds known from D1 (WO 2012/028579 A1) were compared under the above-specified conditions by the pre-emergence and post-emergence method. The example numbers given in the tables relate to the compounds disclosed in the respective documents.

SMILES	Herbicidal action against ABUTH (20 g a.i./ha)	Herbicidal action against AMARE (20 g a.i./ha)	Herbicidal action against AVEFA (20 g a.i./ha)	Herbicidal action against MATIN (20 g a.i./ha)	Herbicidal action against STEME (20 g a.i./ha)	Herbicidal action against VIOTR (20 g a.i./ha)	Herbicidal action against ABUTH (80 g a.i./ha)	Herbicidal action against ALOMY (80 g a.i./ha)	Herbicidal action against AVEFA (80 g a.i./ha)	Herbicidal action against MATIN (80 g a.i./ha)	Herbicidal action against STEME (80 g a.i./ha)	Herbicidal action against VIOTR (80 g a.i./ha)	Herbicidal action against AMARE (80 g a.i./ha)	Herbicidal action against SETVI (80 g a.i./ha)	Herbicidal action against POLCO (20 g a.i./ha, POLCO)	Herbicidal action against SETVI (20 g a.i./ha)	Herbicidal action against HORMU (80 g a.i./ha, HORMU)
CNC(=O)c1c(C(F)(F)F)ccc(C(=O)Nc2nnnn2C)c1Cl [Example 1-129]	100	100	100	100	100	100	100	100	100	100	100	100	–	–	–	–	–
CNC(=O)c1c(C(F)F)ccc(C(=O)Nc2nnnn2C)c1Cl [Example 1-147]	–	–	–	–	–	–	–	90	100	–	100	100	100	100	–	–	–
CCn1nnnc1NC(=O)c1ccc(C(F)(F)F)c(C(=O)NC)c1Cl [Example 2-129]	100	–	100	100	–	100	–	–	–	–	–	–	–	–	100	100	–
CCn1nnnc1NC(=O)c1ccc(C(F)F)c(C(=O)NC)c1Cl [Example 2-147]	–	–	–	–	–	–	–	90	100	–	70	–	–	100	–	–	90
